Measurements reported in patent US10030030B2, “Crystals of dispiropyrrolidine derivatives” (Daiichi Sankyo Company, Limited, priority 2012, dated 2018).
pIC50: −log10 of the molar value.

Columns and labels:
[1] = test system: human lung cancer-derived cell line NCI-H460 having wild-type p53; test: Cell growth inhibition assay (MTT); type: cell-based; details: 72 h, NCI-H460 cells, 3 days culture, read-out: cell growth inhibiting effect GI50
Protocol: A cell growth inhibition assay was conducted using human lung cancer-derived cell line NCI-H460 having wild-type p53.
NCI-H460 cells were suspended in a medium (RPMI1640 medium containing 10% fetal bovine serum) and the suspension was inoculated in an amount of 500 cells/150 μL/well to a 96-well multiwell plate. A test compound was dissolved in DMSO and this solution was diluted with medium to prepare a sample solution (DMSO concentration: 1% or lower). On the next day of inoculation, medium nonsupplemented with the test compound or the sample solution was added in an amount of 50 μL/well. […]
A 5 mg/mL MTT (3-(4,5-dimethylthiazol-2-yl)-2,5-diphenyltetrazolium bromide, Sigma-Aldrich Co., M-2128) solution was prepared using a phosphate buffer solution (Dulbecco's Phosphate-buffered Saline). […] The absorbance of each well was measured under conditions of OD 540 nm and reference 660 nm using a plate reader (SpectraMax PLUS384, Molecular Devices, Calif., USA).
The OD value measured on the day of adding the sample solution was defined as S. The OD value measured three days after addition of the sample solution was defined as T. The OD value measured three days after addition of the DMSO dilution was defined as C. […]

[2] = biological target: T1, Mdm2/p53 binding (His-p53 and GST-Mdm2) (Homo sapiens, UniProt Q00987, L33E); test: Mdm2/p53 binding assay (HTRF); details: His-p53 (aa 1-132) / GST-Mdm2 (aa 25-108, L33E), 6.25 nM each, 25° C., 1 hour
T1 construct: Mdm2 amino acids at positions 25 to 108
T1 sequence (Q00987 25-108 L33E): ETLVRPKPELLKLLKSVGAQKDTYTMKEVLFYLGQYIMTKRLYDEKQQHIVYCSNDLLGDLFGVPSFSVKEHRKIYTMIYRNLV
Protocol: A protein dilution containing 6.25 nM each of His-p53 (fusion protein of a p53 partial protein having p53 amino acids at positions 1 to 132, with a histidine protein) and GST-Mdm2 (fusion protein of a Mdm2 partial protein, having Mdm2 amino acids at positions 25 to 108 with leucine residue 33 substituted by glutamic acid, with glutathione transferase) proteins was prepared using a protein buffer solution (20 mM HEPES pH 7.4, 150 mM NaCl, 0.1% BSA). This protein dilution was added in an amount of 8 μL/well to a 384-well plate (384-well low volume NBC, Corning Inc., catalog No: 3676). […]
Time-resolved fluorescence at 620 and 665 nm was measured at an excitation wavelength of 320 nm using a plate reader (ARVOsx, PerkinElmer Co., Ltd. or PHERAstar, BMG LABTECH). Ratio (R) was calculated using the measured values (RFU 620 nm and RFU 665 nm) according to the following formula: R=(RFU 665 nm−BI−C×RFU 620 nm)/RFU 620 nm
BI: measured value at 665 nm of reaction solution (only each buffer solution) nonsupplemented with each protein, the compound, and the antibodies […]
A and D: each measured value at 665 nm and 620 nm of reaction solution supplemented with only Eu-labeled anti-GST antibody solution.
The R value calculated from the well supplemented with His-p53, GST-Mdm2, the test compound, and each antibody was defined as R (sample). […] T/C was calculated from the formula shown below. […]

GI50 [1]: < 100 nM
pIC50 [2]: ≥ 7.00
Structure (SMILES): CC1(C)CCC2(CC1)N[C@@H](C(=O)N[C@@H]1CC[C@@H](C(N)=O)OC1)[C@H](c1ccnc(Cl)c1F)[C@]21C(=O)Nc2cc(Cl)ccc21 [compound (1), (3′R,4′S,5′R)—N-[(3R,6S)-6-carbamoyltetrahydro-2H-pyran-3-yl]-6″-chloro-4′-(2-chloro-3-fluoropyridin-4-yl)-4,4-dimethyl-2″-oxo-1″,2″-dihydrodispiro[cyclohexane-1,2′-pyrrolidine-3′,3″-indole]-5′-carboxamide]
